“Also recorded” adds a separate entry of the source.
Assays:
HER2+ tumor = assay: Biodistribution of labeled HerPBK10, Tz and BSA; type: in vivo, mouse; conditions: tail vein, four hours after injection
Description: (§1) (A) compares biodistribution and intracellular trafficking of HerPBK10 and Tz.
Fluorescently-labeled HerPBK10 was prepared to assess its bio-distribution and cell uptake in comparison to labeled Tz. Equivalent doses of each reagent were injected into the tail veins of HER2+ tumor bearing mice. Tissues were harvested at four hours after injection for imaging. Both reagents were compared to a labeled non-targeted protein, BSA.

HER2+ MDA-MB-435 cells = assay: Cell uptake (fluorescence confocal microscopy); type: cell-based, human; conditions: after cell surface clustering
Description: as §1
The uptake in HER2+ MDA-MB-435 cells were also evaluated.

MDA-MB-231 (HER2−) = assay: Targeted toxicity, cell survival by MTT assay; type: cell-based, human; conditions: 0.5 μM with respect to Dox; HerPBK10 0.1 μM; day 3
Description: (§2) FIG. 7 illustrates targeted toxicity. […] Cell titer was determined by metabolic (i.e. MTT) assay. FIG. 7 upper panel illustrates the effect of HerDox on MDA-MB-231 (HER2−) and MDA-MB-435 (HER2+) cell survival. Relative surviving cell numbers are represented as a % of corresponding untreated cells. […] Relative survival (as % of untreated cells) is shown for Day 3 of treatment.
(§3) N=3. […] Bar, about 4 μm. […] (E) compares HerDox and Dox on off-target tissue. […] Green fluorescence in nuclei indicates apoptosis (positive TUNEL stain).
(§4) By three days, HerDox reduced HER2+ cell numbers by over 75% whereas HER2− cell survival was unaffected (FIG. 7). […] These findings emphasize the importance of targeting by showing that the untargeted drug affects nontarget (i.e. HER2−) cells. […] To test receptor targeting, the inventors used free heregulin ligand (Her or eHRG) as a competitive inhibitor. […] As a final in vitro challenge, the inventors tested whether HerDox induces toxicity specifically to HER2+ cells in a mixed culture of HER2+ and HER2− breast cancer cells. To do this, the inventors produced a HER2− cell line tagged with green fluorescent protein (GFP) for cell identification in the mixed culture (FIG. 9-A). […] Altogether, these findings indicate that HerDox has the capacity to preferentially target toxicity to HER2+ cells. […] In serum-containing media, no such loss from HerDox is detectable. […] Co-migration of HerPBK10 bands further verified that the conjugates remained intact in the cell media.

[1] = tested on: HER3 on parental cell lines (BT474 and SKBR3); assay: Tz pre-treatment: cell surface HER3 and HerPBK10 binding; type: cell-based, human; conditions: 0.5 mg/mL Tz for 24 hours
Description: N=3. […] N=3. […] N=3. […] N=3. […] N=3. […] N=3.
(§5) N=3. *, p<0.05 compared to parental. […] N=3. *, p<0.05 compared to parental.
The parental and resistant cell lines were pretreated with Tz for 4 or 24 hours before HerDox treatment.
(§6) Parental lines were exposed to Tz for 24 hours and then measured cell surface HER3 levels in comparison to non-treated parental cells. […] As a means of evaluating whether the nanoparticles described herein are capable of recognizing HER3 on human tissue, breast tumor tissue was obtained from a surgical specimen of a HER2+ patient and examined whether HerPBK10 could bind this tissue via HER3.

MDA-MB-435 cells = assay: HerPBK10 binding to cells in human serum (ELISA); conditions: 1.2 μg/well, sera of 5 HER2+ patients and age-matched controls
Description: FIG. 16 illustrates HerPBK10 binding to MDA-MB-435 cells in human serum from HER2+ or HER2− breast cancer patients. Cells were treated with HerPBK10 (1.2 μg/well) in media containing human serum from each of 5 HER2+ breast cancer patients or age matched HER2− controls, both obtained pre-chemotherapy treatment. Cells were processed for ELISA using an antibody directed at HerPBK10. Control (C) wells receiving HerPBK10 in media containing bovine serum without or with 100× molar excess competitive ligand inhibitor (+Her) are indicated by open bars. Patient sera were provided by the WCRI tissue bank at Cedars-Sinai Medical Center. N=3 wells per treatment.
To determine whether HerPBK10 competes with circulating ligand that may be present in serum, the inventors tested HerPBK10 binding to HER2+ breast cancer cells in human serum obtained from HER2+ patients. The Women's Cancer Research Institute at Cedars-Sinai occasionally acquires limited quantities of patient serum, of which sera from HER2+ patients comprises an even smaller minority. […] Here, the inventors replaced the bovine serum in the routine culturing media with the human serum obtained from the acquired patient samples to assess whether the human serum, especially from HER2+ patients, inhibits cell binding. […]

[2] = target: T1, HER3 (human ErbB3 extracellular domain) (Homo sapiens, UniProt P21860); assay: ELISA of HerPBK10 binding to immobilized HER3
T1 construct: immobilized peptide containing the extracellular domain of human HER3; purchased Prospec
Text: (§7) Un, no HerPBK10. […] HerPBK10 binding to HER3 is not inhibited by patient serum.
(§8) Binding was also not inhibited by a HER4 peptide or betacellulin (which blocks HER4) (FIG. 26-B).

[3] = Neutralizing antibody formation after repeat dosing; type: in vivo, mouse; conditions: repeat dosing at therapeutic and 10-fold higher levels, immunocompetent mice
Text: Therefore, receptor binding is not inhibited by patient sera.

MDA-MB-435 (HER2+) = assay: Targeted toxicity, cell survival by MTT assay; type: cell-based, human; conditions: Dox 0.5 μM; HerPBK10 0.1 μM; day 3
Description: as §2
FIG. 8 illustrates receptor specificity. MDA-MB-435 (HER2+) cells were incubated with free ligand (eHRG) at 10× molar excess of HerDox for one hour at 4° C. Media was aspirated to remove free eHRG and fresh media containing HerDox (0.5 μM) was added to cells. Cell survival was measured by MTT assay and represented as a % of relative untreated cell numbers.
as §3, §4

[4] = tested on: HER2+ tumors (MDA-MB-435); assay: In vivo tumor toxicity (tumor growth); parameters: species or system mouse; conditions: 0.004 mg/kg with respect to Dox, daily tail vein injections for 7 days
[5] = tested on: human cardiosphere-derived cells (CDCs); assay: Human CDC viability; conditions: escalating concentrations, 48 hour exposure
Description: Control groups received saline or HerPBK10 at equivalent concentration to HerMn. Treatments began at ˜200 mm^3 average tumor volume. Tumor volumes were measured before (day 1), during (day 3), and after (days 8, 15, and 22) injections of reagents. N=8-10 tumors/group. *p<0.05 (one-way ANOVA). […] N=3 per conc, from 3 separate experiments.
To assess translatability, the viability of human cardiosphere-derived cells (CDCs) in the presence of HerGa and/or HerMn was examined.

[6] = tested on: primary tumor cells from a surgical specimen of a HER2+ patient; assay: Binding to primary human tumor cells; conditions: elevated HER3, very low HER2
Description: as §5, §6

HER2+ cells = assay: ELISA of HerPBK10 binding to HER2+ cells with competitive inhibitors
Text: as §7, §8

[7] = tested on: HER3 on 4T1 mouse mammary tumor cells; assay: Binding of HerPBK10 to mouse mammary tumor cells
Text: (A) is an amino acid sequence alignment of domains I-II (heregulin-binding domain) of human (SEQ ID NO:13) and mouse HER3 (SEQ ID NO:14). (B) compares relative HER3 levels on different cell lines, detected by ELISA (without permeabilization) using an anti-HER3 antibody that cross-reacts with both human and mouse HER3 (1B2E; Cell Signaling Technologies). […] N=3. *, p<0.05 compared to HerPBK10 alone.
Mouse 4T1 cells, obtained from a BALB/c mouse mammary tumor, are triple-negative and have been used as a syngeneic TNBC model in BALB/c mice. […] The receptor-specific binding of HerPBK10 to mouse HER3 reflects the high level of amino acid sequence identity between mouse and human HER3: 91% identity for the entire protein and 94% in the heregulin-binding region (extracellular domains I and II) (FIG. 32-A). […] Importantly, human BT-549 cells, which are also derived from a TNBC, display elevated HER3 on the cell surface (FIG. 32-B) and provide an additional TNBC cell line to target.

HerPBK10: receptor binding domain of heregulin fused to adenovirus penton base protein modified by a C-terminal decalysine
delivery to the heart, spleen, and muscle (HER2+ tumor): nearly absent delivery | lung delivery (HER2+ tumor): no lung delivery | tumor accumulation (HER2+ tumor): equivalent levels of tumor accumulation | time to significant endocytosis (HER2+ MDA-MB-435 cells): ≤ 45 min | effect on HER2− cell survival (MDA-MB-231 (HER2−)): had no effect on either cell line | HerPBK10 binding to Tz pre-treated parental cells [1]: augments HerPBK10 binding; also recorded: proportionately increased | cell binding in serum from HER2+ patients, HER2− patients or bovine serum (MDA-MB-435 cells): no significant differences; also recorded: did not prevent HerPBK10 binding | binding to immobilized HER3 after pre-adsorption with free HER3 peptide [2]: inhibited by pre-adsorption of HerPBK10 with free HER3 peptide | binding to immobilized HER3 peptide [2]: binds to an immobilized peptide containing the extracellular domain of human HER3 | neutralizing antibody formation against the protein [3]: did not yield detectable neutralizing antibody formation | effect on HER2+ cell survival (MDA-MB-435 (HER2+)): had no effect on either cell line; also recorded: does not induce cell death | effect on tumor growth [4]: had no effect | effect on CDC viability [5]: no detectable effect on CDC viability | binding to disaggregated patient tumor cells [6]: exhibiting greater binding than Tz; also recorded: showing greater binding than Tz | binding to HER2+ cells with pertuzumab (Pz) (HER2+ cells): did not prevent HerPBK10 binding | binding to HER2+ cells after pre-adsorption with free HER3 peptide (HER2+ cells; 1× and 10× molar ratio): also inhibited HerPBK10 binding | binding to HER2+ cells with HER4 peptide or betacellulin (HER2+ cells; betacellulin 10 μg/mL): not inhibited | binding to 4T1 cells with human HER3 peptide [7]: competitively inhibited by human HER3 peptide | recognition of HER3 on 4T1 cells [7]: is recognized by HerPBK10

Source: patent US9850293B2, “Targeting trastuzumab-resistant HER2+ breast cancer with a HER3-targeting nanoparticle” (priority 2014, dated 2017)
